According to patent US7498406B2, “Substantially cell membrane impermeable compound and use thereof” (priority 1999, dated 2009):
pKd: −log10 of the molar value.

Key:
BAE cells = assay type: cell-based, bovine; settings: up to 10 mM concentration (not shown)
PBMC = test: Cell number and cell viability in the PBMC HIV assay; settings: 10 μM
Protocol: PBMC's (1×10^6 per mL) were incubated with GSAA or GSAO (10 μM) for 30 minutes at 37° C. and then with primary HIV isolates (HN11, HN68 or HN70 at 50 TCID50 per 10^6 cells) for 2 hours at 37° C. Cells were washed and incubated in complete medium containing GSAA or GSAO (10 μM) at 5% CO2 and 37° C. for up to 7 days. At the indicated times the conditioned medium was collected and assayed for p24 antigen and cell number and cell viability was determined.
The primary HIV isolates, HN11, HN68 and HN70, were provided by Dr. Hassan Naif, Centre for Virus Research, Westmead Millennium Institute, NSW, Australia. […] The blood was diluted 1:2 with PBS, layered onto Ficoll-Hypaque (35 mL blood onto 15 mL Ficoll-Hypaque) in 50 mL Falcon tubes and centrifuged at 400 g for 20 minutes at 20° C. The PBMC's were collected and pelleted at 1200 rpm for 10 minutes to remove platelets, resuspended at 2×10^6 cells per mL in RPMI containing 20% horse serum (Gibco BRL, Gaithersburg, Md.), 10 μg per mL phytohemagglutinin-M (PHA-M, Boehringer Mannheim Biochemica, Mannheim, Germany) and […] interleukin-2 (Sigma, St. Louis, Mo.) and incubated for 2 days at 5% CO2 and 37° C., PBMC (1×10^6 per mL) were incubated with GSAO or GSAA (10 μM) for 30 minutes at 37° C. in serum-free media. Virus was added at 50 TCID50 per 10^6 cells for 2 hours at 37° C.. […]

[1] = Interaction of GSAO with synthetic, peptide and protein dithiols; assay type: binding; settings: read-out: dissociation constants, range over the dithiols
Protocol: FIG. 12. Interaction of GSAO with synthetic, peptide and protein dithiols. DMP (A) (15 μM), 6,8-thioctic acid (B) ([…]), dithiothreitol (C) (8.5 μM), TrpCysGlyProCysLys (D) (4.6 μM), TrpCysGlyHisCysLys (E) (5.5 μM) or thioredoxin (F) (4.1 μM corresponding to 20.6 μM thiols) was incubated with GSAO (0-56 μM) for 10 minutes. DTNB (950 μM) was then added and the reactions incubated for a further 10 minutes. The concentration of thiol in the reactions was determined from the absorbance of the TNB dianion at 412 nm. The solid lines represent the best non-linear least squares fit of the data to Equation 1 (A to E) or Equation 2 (F) and have been drawn using the parameter estimates in Table 1. The dotted line in part A represents a simulated titration assuming an infinite affinity of GSAO for the dithiol. GSAO bound to both synthetic, peptide and protein dithiols with dissociation constants in the range 130 nM to 1.4 μM.
Binding of GSAO to dithiols was measured from loss of thiols using the DTNB assay described above. The dissociation constant, Kd, for GSAO binding to dithiols was determined by incubating increasing concentrations of GSAO, I, with a fixed dithiol concentration, [S]T, and measuring the remaining dithiol using DTNB. Note that the concentration of dithiol equals half the TNB concentration. […]

A3.01 cells = test: Cell number and cell viability in the HIVIIIB assay; assay type: cell-based, human
Protocol: FIG. 33. […] Cells were washed and incubated in complete medium at 5% CO2 and 37° C. for up to 10 days. […] B Concentration dependence of GSAO. […] Cells were washed, incubated in complete medium at 5% CO2 and 37° C. for 3 days and the conditioned medium collected and assayed for p24 antigen.
FIG. 34. Inhibition of HIVIIIB infection of A3.01 cells by GSAO.
A3.01 human T cells were exposed to GSAO for 30 minutes and then to HTLVIIIB virus for 2 hours after which the cells were washed and then cultured for up to 10 days. HTLVIIIB and A3.01 cells were obtained from the NIH AIDS Research and Reference Reagent Program, Rockville, Mass. Virus stocks were made and infectivity titer determined using A3.01 cells and the p24 antigen assay (Coulter, Miami, Fla.). A3.01 cells were cultured in RPMI medium containing 10% fetal calf serum. […] Cell numbers and cell viability were determined at the times specified by staining cells with trypan blue and counting using a Neubauer haemacytometer. Cell viability was measured as a percentage of live cells to total cells.

[2] = Titration of cysteine with GSAO, DTNB assay; assay type: binding; settings: cysteine 28 μM, GSAO 0-50 μM, 10 minutes
Protocol: FIG. 11. Titration of DMP or cysteine with GSAO. DMP (15 ? M corresponding to 30 μM thiols) or cysteine (28 μM) was incubated with GSAO (0-50 μM) for 10 minutes. DTNB (950 μM) was then added and the reactions incubated for a further 10 minutes. The concentration of thiol in the reactions was determined from the absorbance of the TNB dianion at 412 nm.
A stock solution of DMP (5 μL, 50 μmol) was dissolved in DMSO (995 μL), giving a concentration of 50 mM DMP, A second dilution of the 50 mM DMP stock solution (10 μL) in pH 7.0 buffer (0.1 M HEPES, 0.3 M NaCl, 1 mM EDTA) (990 μL) gave a working solution of 500 ? M DMP. The activity of the arsenical could then be determined by the titration of varying amounts of arsenical against the DMP working solution (10 μL) in a 96-well microtitre plate, with the total volume made up to 195 μL by addition of buffer. After a 10 minute incubation at room temperature, during which time the solutions were agitated on a plate shaker, 5 μL of a 37.9 mM stock solution of DTNB (15 mg) in DMSO (1 mL) was added, and the plate incubated with shaking for another 10 minutes. The absorbance at 412 nm due to the formation of the TNB dianion was measured using a Molecular Devices Thermomax Plus (Palo Alto, Calif.) microplate reader. The extinction coefficient for the TNB dianion at pH 7.0 is 14, 150 M^−1cm^−1 at 412 nm (Riddles et al., 1983).

In the case of `N[C@@H](CCC(=O)N[C@@H](CSCC(=O)Nc1ccc([As](=O)(O)O)cc1)C(=O)NCC(=O)O)C(=O)O` [GSAA, 4-(N-(S-glutathionylacetyl)amino)phenylarsonic acid, reference compound], the “effect on BAE viability” value (BAE cells) was “no significant effect”.

For `NC(CCC(=O)NC(CSCC(=O)Nc1ccc([As]=O)cc1)C(=O)NCC(=O)O)C(=O)O` (centres unmarked) [GSAO, 4-(N-(S-glutathionylacetyl)amino)-phenylarsenoxide], the “proliferation of PBMC's” value (PBMC) was “inhibited proliferation”, the “viability of PBMC's” value (PBMC; 7 days) was “no effect of cell viability” and the pKd [1] was 5.85 to 6.89. For the same molecule, the “effect on cell proliferation” value (A3.01 cells; 10 μM in the culture medium) was “small inhibitory effect on cell proliferation”, the “effect on cell viability” value (A3.01 cells; 10 μM in the culture medium) was “no effect on cell viability” and the “effect on cell proliferation or cell viability” value (A3.01 cells; up to 100 μM, pre-incubation only) was “no effect on cell proliferation or cell viability”. The “interaction with cysteine in DTNB titration” value [2] was “any interaction of GSAO with cysteine was displaced by DTNB”.
